For the test, the target named is human CXCR3A (Homo sapiens (Human), UniProt P49682). Briefly: FLIPR assay (inhibition of CXCL10-induced calcium signal). The class given is cell-based. Particulars: engineered CHO-K1 cells expressing human CXCR3A coupled to Galpha(16); Fluo-4-AM; CXCL10 agonist 20 nM; mean values where determined several times. The procedure: The bioactivity of compounds is tested in a fluorometric imaging plate reader (FLIPR: Molecular Devices) using engineered CHO-K1 cells expressing the human CXCR3A (GenBank: AY242128) coupled to a G protein (Galpha(16)). Cells are plated the day prior to bioassay in F12 medium supplemented with 10% FBS and G418 and hygromycin antibiotics to maintain recombinant selection. At the day of bioassay, cells are washed and dye loaded for one hour with Fluo-4-AM (Invitrogen) in Hanks Balanced Salt Solution (Invitrogen), buffered with 20 mM Hepes at pH 7.4 and sodium bicarbonate (0.038%), containing 5 mM probenecid. This buffer, but lacking the dye and containing probenecid at a concentration of 2.5 mM, is also used for washing steps (wash buffer); or lacking both dye and probenecid but supplemented with 0.1% BSA for compound dilution steps (dilution buffer). Cells are washed free of excess dye and 60 microliter of wash buffer is added. Stock solutions of test compounds are made up at a concentration of 10 mM in DMSO, and serially diluted in dilution buffer to concentrations required for inhibition dose response curves. After a 10 minute incubation period at 37° C., 10 microliters of each compound dilution are transferred from a compound plate to the plate containing the recombinant cells in the FLIPR instrument according to the manufacturer's instructions. Following basal readings, 10 microliter CXCL10 agonist at a concentration of 20 nM (from Peprotech) is added, again using the FLIPR instrument. Changes in fluorescence are monitored before and after addition of the test compounds. Emission peak values above base level after CXCL10 addition are exported after base line subtraction.
Chain of human CXCR3A (P49682 whole entry): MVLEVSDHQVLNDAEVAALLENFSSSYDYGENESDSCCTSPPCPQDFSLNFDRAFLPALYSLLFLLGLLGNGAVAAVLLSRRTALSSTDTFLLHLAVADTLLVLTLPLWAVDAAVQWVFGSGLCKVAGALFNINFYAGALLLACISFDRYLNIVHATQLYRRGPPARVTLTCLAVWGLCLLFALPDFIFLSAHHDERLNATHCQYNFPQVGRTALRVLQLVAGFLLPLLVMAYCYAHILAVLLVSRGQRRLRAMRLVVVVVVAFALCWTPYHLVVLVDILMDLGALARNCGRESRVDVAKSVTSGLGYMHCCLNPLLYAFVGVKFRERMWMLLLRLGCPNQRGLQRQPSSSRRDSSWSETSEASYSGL
The calculated IC50 values may fluctuate depending on the daily assay performance. Fluctuations of this kind are known to those skilled in the art. In the case where IC50 values have been determined several times for the same compound, mean values are given.

The structures appear in SMILES notation.

Our source for the IC50 values is patent publication US9951063B2, “8-(piperazin-1-yl)-1,2,3,4-tetrahydro-isoquinoline derivatives” (IDORSIA PHARMACEUTICALS LTD, priority 2014, dated 2018).

Broadly, the IC50 is the concentration that inhibits the measured activity by half. In the case of `Cc1cc(C)n(CC(=O)N2CCN(c3ccc(C(F)(F)F)c4c3CN(c3ncc(Cn5cccn5)s3)CC4)C[C@H]2C)n1` [Example 1, 2-(3,5-Dimethyl-pyrazol-1-yl)-1-{(R)-2-methyl-4-[2-(5-pyrazol-1-ylmethyl-thiazol-2-yl)-5-trifluoromethyl-1,2,3,4-tetrahydro-isoquinolin-8-yl]-piperazin-1-yl}-ethanone], the IC50 came out at 4.47 nM.

As for `Cc1cc(C)n(CC(=O)N2CCN(c3ccc(C(F)(F)F)c4c3CN(c3nc(C(F)(F)F)cs3)CC4)C[C@H]2C)n1` [Example 2, 2-(3,5-Dimethyl-pyrazol-1-yl)-1-{(R)-2-methyl-4-[5-trifluoromethyl-2-(4-trifluoromethyl-thiazol-2-yl)-1,2,3,4-tetrahydro-isoquinolin-8-yl]-piperazin-1-yl}-ethanone], the IC50 was 6.07 nM.

`CCc1csc(N2CCc3c(C(F)(F)F)ccc(N4CCN(C(=O)Cn5nc(C)cc5C)[C@H](C)C4)c3C2)n1` [Example 3, 2-(3,5-Dimethyl-pyrazol-1-yl)-1-{(R)-4-[2-(4-ethyl-thiazol-2-yl)-5-trifluoromethyl-1,2,3,4-tetrahydro-isoquinolin-8-yl]-2-methyl-piperazin-1-yl}-ethanone]: the IC50 is 15.1 nM.

`Cc1cc(C)n(CC(=O)N2CCN(c3ccc(C(F)(F)F)c4c3CN(c3nc(C(C)(C)C)cs3)CC4)C[C@H]2C)n1` [Example 4, 1-{(R)-4-[2-(4-tert.-Butyl-thiazol-2-yl)-5-trifluoromethyl-1,2,3,4-tetrahydro-isoquinolin-8-yl]-2-methyl-piperazin-1-yl}-2-(3,5-dimethyl-pyrazol-1-yl)-ethanone]: the IC50 was determined as 20.6 nM.

Turning to `Cc1cc(C)n(CC(=O)N2CCN(c3ccc(C(F)(F)F)c4c3CN(c3nc(-c5ccccn5)cs3)CC4)C[C@H]2C)n1` [Example 5, 2-(3,5-Dimethyl-pyrazol-1-yl)-1-{(R)-2-methyl-4-[2-(4-pyridin-2-yl-thiazol-2-yl)-5-trifluoromethyl-1,2,3,4-tetrahydro-isoquinolin-8-yl]-piperazin-1-yl}-ethanone], the IC50 was determined as 11 nM.

As for `Cc1cc(C)n(CC(=O)N2CCN(c3ccc(C(F)(F)F)c4c3CN(c3ncc(Cl)s3)CC4)C[C@H]2C)n1` [Example 6, 1-{(R)-4-[2-(5-Chloro-thiazol-2-yl)-5-trifluoromethyl-1,2,3,4-tetrahydro-isoquinolin-8-yl]-2-methyl-piperazin-1-yl}-2-(3,5-dimethyl-pyrazol-1-yl)-ethanone], the IC50 turned out to be 18.1 nM.

Consider `Cc1cc(C)n(CC(=O)N2CCN(c3ccc(C(F)(F)F)c4c3CN(c3nc(C#N)cs3)CC4)C[C@H]2C)n1` [Example 7, 2-(8-{(R)-4-[2-(3,5-Dimethyl-pyrazol-1-yl)-acetyl]-3-methyl-piperazin-1-yl}-5-trifluoromethyl-3,4-dihydro-1H-isoquinolin-2-yl)-thiazole-4-carbonitrile], for which the IC50 was found to be 29.2 nM.

In the case of `Cc1cc(C)n(CC(=O)N2CCN(c3ccc(C(F)(F)F)c4c3CN(c3ncc(C#N)s3)CC4)C[C@H]2C)n1` [Example 8, 2-(8-{(R)-4-[2-(3,5-Dimethyl-pyrazol-1-yl)-acetyl]-3-methyl-piperazin-1-yl}-5-trifluoromethyl-3,4-dihydro-1H-isoquinolin-2-yl)-thiazole-5-carbonitrile], the IC50 came to 8.88 nM.

For the compound `Cc1ccc2nc(N3CCc4c(C(F)(F)F)ccc(N5CCN(C(=O)Cn6nc(C)cc6C)[C@H](C)C5)c4C3)sc2c1` [Example 9, 2-(3,5-Dimethyl-pyrazol-1-yl)-1-{(R)-2-methyl-4-[2-(6-methyl-benzothiazol-2-yl)-5-trifluoromethyl-1,2,3,4-tetrahydro-isoquinolin-8-yl]-piperazin-1-yl}-ethanone], the IC50 was found to be 13.7 nM.

On to `Cc1cc(C)n(CC(=O)N2CCN(c3ccc(C(F)(F)F)c4c3CN(c3nc5ccc(F)cc5s3)CC4)C[C@H]2C)n1` [Example 10, 2-(3,5-Dimethyl-pyrazol-1-yl)-1-{(R)-4-[2-(6-fluoro-benzothiazol-2-yl)-5-trifluoromethyl-1,2,3,4-tetrahydro-isoquinolin-8-yl]-2-methyl-piperazin-1-yl}-ethanone], for which the IC50 was 9.45 nM.

With `Cc1cc(C)n(CC(=O)N2CCN(c3ccc(C(F)(F)F)c4c3CN(c3nc5ccc(C#N)cc5s3)CC4)C[C@H]2C)n1` [Example 11, 2-(8-{(R)-4-[2-(3,5-Dimethyl-pyrazol-1-yl)-acetyl]-3-methyl-piperazin-1-yl}-5-trifluoromethyl-3,4-dihydro-1H-isoquinolin-2-yl)-benzothiazole-6-carbonitrile], the IC50 stood at 6.58 nM.

As for `Cc1cc(C)n(CC(=O)N2CCN(c3ccc(C(F)(F)F)c4c3CN(c3nc5ccccc5o3)CC4)C[C@H]2C)n1` [Example 12, 1-[(R)-4-(2-Benzooxazol-2-yl-5-trifluoromethyl-1,2,3,4-tetrahydro-isoquinolin-8-yl)-2-methyl-piperazin-1-yl]-2-(3,5-dimethyl-pyrazol-1-yl)-ethanone], the IC50 was 9.39 nM.

On to `Cc1cc(C)n(CC(=O)N2CCN(c3ccc(C(F)(F)F)c4c3CN(c3cnc(N(C)C)nc3)CC4)C[C@H]2C)n1` [Example 13, 1-{(R)-4-[2-(2-Dimethylamino-pyrimidin-5-yl)-5-trifluoromethyl-1,2,3,4-tetrahydro-isoquinolin-8-yl]-2-methyl-piperazin-1-yl}-2-(3,5-dimethyl-pyrazol-1-yl)-ethanone], for which the IC50 came to 8.48 nM.

With `Cc1cc(C)n(CC(=O)N2CCN(c3ccc(C(F)(F)F)c4c3CN(c3ncc(Br)cn3)CC4)C[C@H]2C)n1` [Example 14, 1-{(R)-4-[2-(5-Bromo-pyrimidin-2-yl)-5-trifluoromethyl-1,2,3,4-tetrahydro-isoquinolin-8-yl]-2-methyl-piperazin-1-yl}-2-(3,5-dimethyl-pyrazol-1-yl)-ethanone], the IC50 stood at 27.7 nM.

As to `Cc1cc(C)n(CC(=O)N2CCN(c3ccc(C(F)(F)F)c4c3CN(c3cnc(C5CC5)nc3)CC4)C[C@H]2C)n1` [Example 15, 1-{(R)-4-[2-(2-Cyclopropyl-pyrimidin-5-yl)-5-trifluoromethyl-1,2,3,4-tetrahydro-isoquinolin-8-yl]-2-methyl-piperazin-1-yl}-2-(3,5-dimethyl-pyrazol-1-yl)-ethanone], the IC50 was 3.58 nM.

Turning to `C[C@@H]1CN(c2ccc(C(F)(F)F)c3c2CN(c2ccccc2)CC3)CCN1C(=O)Cn1cnc2cccnc21` [Example 16, 2-Imidazo[4,5-b]pyridin-3-yl-1-[(R)-2-methyl-4-(2-phenyl-5-trifluoromethyl-1,2,3,4-tetrahydro-isoquinolin-8-yl)-piperazin-1-yl]-ethanone], the IC50 worked out at 6.19 nM.

Turning to `COc1ncc(N2CCc3c(C(F)(F)F)ccc(N4CCN(C(=O)Cn5cnc6cccnc65)[C@H](C)C4)c3C2)cn1` [Example 17, 2-Imidazo[4,5-b]pyridin-3-yl-1-{(R)-4-[2-(2-methoxy-pyrimidin-5-yl)-5-trifluoromethyl-1,2,3,4-tetrahydro-isoquinolin-8-yl]-2-methyl-piperazin-1-yl}-ethanone], the IC50 was determined as 9.2 nM.

As for `COc1cccc(N2CCc3c(C(F)(F)F)ccc(N4CCN(C(=O)Cn5cnc6cccnc65)[C@H](C)C4)c3C2)c1` [Example 18, 2-Imidazo[4,5-b]pyridin-3-yl-1-{(R)-4-[2-(3-methoxy-phenyl)-5-trifluoromethyl-1,2,3,4-tetrahydro-isoquinolin-8-yl]-2-methyl-piperazin-1-yl}-ethanone], the IC50 stood at 13 nM.

Turning to `COc1nc(OC)nc(N2CCc3c(C(F)(F)F)ccc(N4CCN(C(=O)Cn5cnc6cccnc65)[C@H](C)C4)c3C2)n1` [Example 19, 1-{(R)-4-[2-(4,6-Dimethoxy-[1,3,5]triazin-2-yl)-5-trifluoromethyl-1,2,3,4-tetrahydro-isoquinolin-8-yl]-2-methyl-piperazin-1-yl}-2-imidazo[4,5-b]pyridin-3-yl-ethanone], the concentration for half-maximal inhibition (IC50) worked out at 11.7 nM.

With `CCOc1ncc(N2CCc3c(C(F)(F)F)ccc(N4CCN(C(=O)Cn5cnc6cccnc65)[C@H](C)C4)c3C2)cn1` [Example 20, 1-{(R)-4-[2-(2-Ethoxy-pyrimidin-5-yl)-5-trifluoromethyl-1,2,3,4-tetrahydro-isoquinolin-8-yl]-2-methyl-piperazin-1-yl}-2-imidazo[4,5-b]pyridin-3-yl-ethanone], the IC50 was 7.77 nM.

As for `C[C@@H]1CN(c2ccc(C(F)(F)F)c3c2CN(c2ccc(Cl)cc2)CC3)CCN1C(=O)Cn1cnc2cccnc21` [Example 21, 1-{(R)-4-[2-(4-Chloro-phenyl)-5-trifluoromethyl-1,2,3,4-tetrahydro-isoquinolin-8-yl]-2-methyl-piperazin-1-yl}-2-imidazo[4,5-b]pyridin-3-yl-ethanone], the IC50 is 29.9 nM.

For `CCCc1ncc(N2CCc3c(C(F)(F)F)ccc(N4CCN(C(=O)Cn5cnc6cccnc65)[C@H](C)C4)c3C2)cn1` [Example 22, 2-Imidazo[4,5-b]pyridin-3-yl-1-{(R)-2-methyl-4-[2-(2-propyl-pyrimidin-5-yl)-5-trifluoromethyl-1,2,3,4-tetrahydro-isoquinolin-8-yl]-piperazin-1-yl}-ethanone], the IC50 amounted to 10.7 nM.
